Experimental data taken from US20220323406A1, “METHODS AND COMPOSITIONS FOR DIFFERENTIATING STEM CELLS” (Massachusetts Institute of Technology, priority 2019, published 2022).
Structures can show the parent of a compound that is named as a salt.

Legend:
[1] = test system: ENR+CD organoids (ISC to Paneth cell differentiation); assay: Primary screen: CCh-stimulated lysozyme secretion LYZ.S, 2.5-D 384-well ENR+CD organoid differentiation; assay type: cell-based, mouse; settings: primary screen
From the text: (§1) High-throughput screening.

ENR+CD organoids = assay: Primary screen: ATP (CellTiter-Glo 3D, CTG) cell number/viability, 2.5-D 384-well ENR+CD organoids; settings: primary screen; for Z.CTG: standard z score;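 for all read-outs here: compounds given at plating and again on day 3 over a 6-day differentiation from ENR+CV stem-cell-enriched precursors, ATP measured on day 6, plate median as control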
[2] = test system: ENR+CD organoids (ISC to Paneth cell differentiation); assay: Primary screen: basal (non-stimulated) lysozyme secretion LYZ.NS, 2.5-D 384-well ENR+CD organoid differentiation; assay type: cell-based, mouse; settings: primary screen; for Z.LYZ.NS: standard z score
From the text: as §1

[3] = dose 0.08 uM, FC vs plate median
[4] = dose 0.40 uM, FC vs plate median
[5] = dose 2.00 uM, FC vs plate median
[6] = dose 10.00 uM, FC vs plate median
[7] = dose 0.08 uM, FC relative to plate median
[8] = dose 0.40 uM, FC relative to plate median
[9] = dose 2.00 uM, FC relative to plate median
[10] = dose 10.00 uM, FC relative to plate median

| SMILES | Dose.FC.LYZ.S [1, 3] | Dose.FC.LYZ.S [1, 4] | Dose.FC.LYZ.S [1, 5] | Dose.FC.LYZ.S [1, 6] | Dose.FC.CTG (ENR+CD organoids; [3]) | Dose.FC.CTG (ENR+CD organoids; [4]) | Dose.FC.CTG (ENR+CD organoids; [5]) | Dose.FC.CTG (ENR+CD organoids; [6]) | Z.LYZ.NS ([2]; dose 0.08 uM) | Z.LYZ.NS ([2]; dose 0.40 uM) | Z.LYZ.NS ([2]; dose 2.00 uM) | Z.LYZ.NS ([2]; dose 10.00 uM) | Dose.FC.LYZ.NS [2, 3] | Dose.FC.LYZ.NS [2, 4] | Dose.FC.LYZ.NS [2, 5] | Dose.FC.LYZ.NS [2, 6] | Dose.FC.LYZ.S [1, 7] | Dose.FC.LYZ.S [1, 8] | Dose.FC.LYZ.S [1, 9] | Dose.FC.LYZ.S [1, 10] | other results |
| --- | --- | --- | --- | --- | --- | --- | --- | --- | --- | --- | --- | --- | --- | --- | --- | --- | --- | --- | --- | --- | --- |
| COc1ccc(-c2nc3ccc(C4=NNC(=O)CC4C)cc3[nH]2)cc1 (stereo not shown) [Pimobendan] | 0.129 log2 fold change | 0.051 log2 fold change | 0.194 log2 fold change | −0.134 log2 fold change | −0.022 log2 fold change | 0.193 log2 fold change | 0.206 log2 fold change | 0.139 log2 fold change | 0.328 | 0.546 | 1.121 | −0.577 | 0.038 log2 fold change | 0.063 log2 fold change | 0.129 log2 fold change | −0.066 log2 fold change | – | – | – | – | – |
| O=C(NNc1ccccc1)c1ccncc1 [PluriSIn #1 (NSC 14613)] | 0.057 log2 fold change | −0.007 log2 fold change | −0.133 log2 fold change | −0.372 log2 fold change | −0.146 log2 fold change | −0.095 log2 fold change | −0.433 log2 fold change | −0.853 log2 fold change | 0.720 | 0.039 | −0.929 | −2.475 | 0.083 log2 fold change | 0.004 log2 fold change | −0.107 log2 fold change | −0.284 log2 fold change | – | – | – | – | Z.CTG (ENR+CD organoids; dose 0.08 uM): −0.349; Z.CTG (ENR+CD organoids; dose 0.40 uM): −0.226; Z.CTG (ENR+CD organoids; dose 2.00 uM): −1.035; Z.CTG (ENR+CD organoids; dose 10.00 uM): −2.038 |
| Nc1cccc2c1C(=O)N(C1CCC(=O)NC1=O)C2=O (stereo not shown) [Pomalidomide] | −0.028 log2 fold change | −0.082 log2 fold change | −0.115 log2 fold change | −0.205 log2 fold change | 0.063 log2 fold change | 0.224 log2 fold change | −0.216 log2 fold change | −0.305 log2 fold change | −0.019 | −0.013 | −0.334 | −1.098 | −0.002 log2 fold change | −0.001 log2 fold change | −0.038 log2 fold change | −0.126 log2 fold change | – | – | – | – | – |
| C#CCC(Cc1cnc2nc(N)nc(N)c2n1)c1ccc(C(=O)N[C@@H](CCC(=O)O)C(=O)O)cc1 (stereo partly shown) [Pralatrexate] | – | – | – | – | – | – | – | – | −1.173 | −1.413 | −1.345 | −1.292 | – | – | – | – | −0.183 log2 fold change | −0.176 log2 fold change | −0.173 log2 fold change | −0.215 log2 fold change | Dose.FC.CTG (ENR+CD organoids; [7]): −0.649 log2 fold change; Dose.FC.CTG (ENR+CD organoids; [8]): −0.853 log2 fold change; Dose.FC.CTG (ENR+CD organoids; [9]): −0.681 log2 fold change; Dose.FC.CTG (ENR+CD organoids; [10]): −0.922 log2 fold change; Dose.FC.LYZ.NS [2, 7]: −0.135 log2 fold change; Dose.FC.LYZ.NS [2, 8]: −0.162 log2 fold change; Dose.FC.LYZ.NS [2, 9]: −0.154 log2 fold change; Dose.FC.LYZ.NS [2, 10]: −0.148 log2 fold change |
| CCCN[C@H]1CCc2nc(N)sc2C1 [Pramipexole] | – | – | – | – | – | – | – | – | 0.495 | 0.234 | 0.239 | 0.043 | – | – | – | – | 0.050 log2 fold change | 0.123 log2 fold change | 0.041 log2 fold change | 0.071 log2 fold change | Dose.FC.CTG (ENR+CD organoids; [7]): 0.109 log2 fold change; Dose.FC.CTG (ENR+CD organoids; [8]): 0.182 log2 fold change; Dose.FC.CTG (ENR+CD organoids; [9]): 0.026 log2 fold change; Dose.FC.CTG (ENR+CD organoids; [10]): 0.231 log2 fold change; Dose.FC.LYZ.NS [2, 7]: 0.057 log2 fold change; Dose.FC.LYZ.NS [2, 8]: 0.027 log2 fold change; Dose.FC.LYZ.NS [2, 9]: 0.027 log2 fold change; Dose.FC.LYZ.NS [2, 10]: 0.005 log2 fold change |
| CC(C)NCC(O)COc1cccc2ccccc12 (stereo not shown) [Propranolol HCl] | – | – | – | – | – | – | – | – | 0.418 | 0.642 | 1.427 | 0.276 | – | – | – | – | 0.173 log2 fold change | 0.204 log2 fold change | 0.091 log2 fold change | 0.040 log2 fold change | Dose.FC.CTG (ENR+CD organoids; [7]): 0.066 log2 fold change; Dose.FC.CTG (ENR+CD organoids; [8]): 0.054 log2 fold change; Dose.FC.CTG (ENR+CD organoids; [9]): 0.117 log2 fold change; Dose.FC.CTG (ENR+CD organoids; [10]): 0.168 log2 fold change; Dose.FC.LYZ.NS [2, 7]: 0.048 log2 fold change; Dose.FC.LYZ.NS [2, 8]: 0.074 log2 fold change; Dose.FC.LYZ.NS [2, 9]: 0.164 log2 fold change; Dose.FC.LYZ.NS [2, 10]: 0.032 log2 fold change |
